Test results published in patent US5912153A, “(1,3) β-glucan synthase genes and inducible inhibition of fungal growth using the antisense constructs derived therefrom” (priority 1995, dated 1999).

Target: Neurospora crassa wild type (1,3)β-glucan synthase (crude extract) (Neurospora crassa, UniProt Q7S0A7)
Assay: (1,3)β-glucan synthase assay with quinate added to wild type crude extract
Assay type: biochemical
Details: concentrations as high as 4.0% of quinate added to the assay, data not shown
Method: To fresh hyphal pellets was added 20-mls of extraction buffer (25 mM HEPES (pH7.4); 10 mM NaH2 PO4; 600 mM glycerol; 10 mM NaF; 5 mM EDTA and 10 μM GTPy-S). At 4° C., hyphae were disrupted (5×30 second pulses with 2 minute coolings between each pulse) using a Bead Beater (Biospec Products, Bartlesville, Okla.) with 0.5 mm zirconium-silica beads. Lysates were centrifuged at 1000×g for 10 min at […], and used for the enzyme assays as will subsequently be described. Protein concentrations were determined by the method of Bradford using the Bio-Rad protein reagent (BioRad Labs, Hercules, Calif.). The yield was anywhere from 0.9-2.4 mg/ml crude extract depending on the transformant.
(1,3)β-Glucan synthase was assayed using modifications of a procedure previously described. To this end, in vitro reactions contained 50 μg α-amylase (type IIA; Sigma), 1 mM UDP-^14 C-glucose (~50,000 cpm/assay), and 20 μl crude extract in a final volume of 26 μl. Reactions were carried out in V-bottom 96-well microtiter plates (Dynatec Laboratories, Chantilly, Va.) and incubated at 22° C. for 0, 15, 30, 45, and 60 minutes. […]
Wrapped Inotech glass fiber filters were placed for 4-18 hours on a Molecular Dynamics Phosphor Screen. The amount of radioactivity on the filter was determined using a Molecular Dynamics Phosphor Imager Model Sl. […]

Chain of Neurospora crassa wild type (1,3)β-glucan synthase (crude extract) (Q7S0A7 1-1955): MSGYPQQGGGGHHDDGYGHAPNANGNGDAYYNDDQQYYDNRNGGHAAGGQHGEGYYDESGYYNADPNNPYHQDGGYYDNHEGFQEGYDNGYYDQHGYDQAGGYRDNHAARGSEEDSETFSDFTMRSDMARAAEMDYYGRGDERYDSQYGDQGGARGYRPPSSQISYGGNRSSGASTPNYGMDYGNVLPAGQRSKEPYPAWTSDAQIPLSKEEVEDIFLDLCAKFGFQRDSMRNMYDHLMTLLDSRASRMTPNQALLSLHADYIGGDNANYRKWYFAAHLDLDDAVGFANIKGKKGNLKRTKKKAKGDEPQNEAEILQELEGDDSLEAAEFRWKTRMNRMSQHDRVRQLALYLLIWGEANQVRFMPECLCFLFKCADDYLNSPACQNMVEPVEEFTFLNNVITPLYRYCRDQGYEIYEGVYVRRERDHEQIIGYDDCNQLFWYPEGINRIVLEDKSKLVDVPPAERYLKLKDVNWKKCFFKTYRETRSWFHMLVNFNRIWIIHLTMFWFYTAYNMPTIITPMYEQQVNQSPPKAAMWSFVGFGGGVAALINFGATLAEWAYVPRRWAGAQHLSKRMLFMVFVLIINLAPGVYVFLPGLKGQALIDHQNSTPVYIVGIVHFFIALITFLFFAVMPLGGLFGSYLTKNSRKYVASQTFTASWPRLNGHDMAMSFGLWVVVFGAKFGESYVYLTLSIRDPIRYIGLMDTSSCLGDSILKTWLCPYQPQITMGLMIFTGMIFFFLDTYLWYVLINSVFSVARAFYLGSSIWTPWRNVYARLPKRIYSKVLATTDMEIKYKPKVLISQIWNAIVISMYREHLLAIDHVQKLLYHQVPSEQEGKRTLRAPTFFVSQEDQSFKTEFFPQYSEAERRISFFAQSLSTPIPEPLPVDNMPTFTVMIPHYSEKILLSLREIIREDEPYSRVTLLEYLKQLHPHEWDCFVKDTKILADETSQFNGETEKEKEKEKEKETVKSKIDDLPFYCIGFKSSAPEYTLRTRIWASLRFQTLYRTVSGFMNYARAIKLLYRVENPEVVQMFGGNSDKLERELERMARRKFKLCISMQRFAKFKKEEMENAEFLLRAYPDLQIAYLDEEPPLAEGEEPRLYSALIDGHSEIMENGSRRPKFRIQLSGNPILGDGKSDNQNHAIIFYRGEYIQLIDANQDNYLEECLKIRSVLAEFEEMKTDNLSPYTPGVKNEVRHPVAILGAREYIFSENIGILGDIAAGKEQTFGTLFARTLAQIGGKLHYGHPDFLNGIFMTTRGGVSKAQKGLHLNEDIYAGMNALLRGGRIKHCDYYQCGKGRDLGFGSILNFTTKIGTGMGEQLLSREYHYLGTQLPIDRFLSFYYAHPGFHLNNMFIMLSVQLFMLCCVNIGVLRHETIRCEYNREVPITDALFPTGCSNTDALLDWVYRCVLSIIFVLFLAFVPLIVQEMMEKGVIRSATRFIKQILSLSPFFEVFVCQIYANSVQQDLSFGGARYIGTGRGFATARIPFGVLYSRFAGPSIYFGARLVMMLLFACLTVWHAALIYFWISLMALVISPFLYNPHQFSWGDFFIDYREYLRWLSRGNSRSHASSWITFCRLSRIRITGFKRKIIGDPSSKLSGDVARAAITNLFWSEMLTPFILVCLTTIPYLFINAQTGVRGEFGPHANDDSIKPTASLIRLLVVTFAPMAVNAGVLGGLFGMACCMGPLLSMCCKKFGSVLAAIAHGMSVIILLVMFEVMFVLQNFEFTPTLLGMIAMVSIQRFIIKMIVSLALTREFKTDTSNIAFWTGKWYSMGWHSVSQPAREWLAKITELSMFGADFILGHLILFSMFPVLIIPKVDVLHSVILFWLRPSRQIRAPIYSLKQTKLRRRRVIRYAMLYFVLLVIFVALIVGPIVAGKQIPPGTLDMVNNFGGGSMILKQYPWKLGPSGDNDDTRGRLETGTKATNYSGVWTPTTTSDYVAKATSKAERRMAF
Chain of Neurospora crassa wild type (1,3)β-glucan synthase (crude extract) (Q7RXU8 1-195 partner): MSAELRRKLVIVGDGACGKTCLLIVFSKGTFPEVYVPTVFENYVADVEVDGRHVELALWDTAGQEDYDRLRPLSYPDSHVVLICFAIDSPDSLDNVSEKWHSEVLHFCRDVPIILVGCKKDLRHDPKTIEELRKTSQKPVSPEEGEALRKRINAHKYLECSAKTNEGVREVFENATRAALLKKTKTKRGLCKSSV

## O=C(O)C1(O)CC(O)C(O)C(O)C1 (single isomer, unassigned) [quinate, quinic acid]
  inhibitory effect of quinate on (1,3)β-glucan synthase activity: did not show an inhibitory effect
